Experimental data taken from patent US6515025B2, “Use of ethynyl alanine amino diol compounds to inhibit enzymatic conversion of angiotensinogen to angiotensin I” (Pharmacia Corporation, priority 1991, dated 2003).
Where “and” joins values, the source holds several entries; their conditions need not be identical. Equal entries are not always repeated. Where two headings read alike, the source gives them in different places.

Assay: Oral bioavailability studies in marmosets (plasma concentration by bioassay)
Format: in vivo
Experimental: The bioavailability in marmosets and dogs was determined by sampling the blood via the femoral vein at various time points after administering the renin inhibitor compounds of the invention in polyethylene glycol 400 at an intragastric dose of 10 mg/kg or at an intravenous dose of 1 mg/kg. Compound concentration in plasma was determined using the bioassay technique described below. The percent bioavailability was calculated by dividing the area under the concentration-vs.-time curve obtained from the intragastric experiment by the area under the concentration-vs.-time curve obtained from the intravenous experiment (adjusting for different doses), and multiplying the result by 100%. The bioavailibility of Example 1 compound is 27% in marmosets and 33% in dogs.
Renin inhibitor plasma concentrations were determined by a bioassay. The plasma samples were extracted with acetonitrile and the extract was evaporated to dryness under nitrogen. Residue was dissolved in 4% bovine serum albumin containing 0.9% NaCl and 5% EDTA. The dissolved residue (0.1 ml) was incubated with a reaction mixture containing human plasma (0.12 ml), 5% phenylmethysulfonylfluoride (1.2 ul), 10% neomycin (2.4 ul), 0.5 M TES buffer (pH 7.4, 24 ul), and 0.6 mU/ml recombinant human renin (1000 U/mg, 50 ul) at 37° C. for 90 minutes. The renin activity was determined by a standard angiotensin I radioimmunoassay (New England Nuclear Corp.). The amount of test compound in the plasma was determined by comparing the extent of inhibition of renin activity with that produced by a known amount of test compound added to plasma and analyzed above.

C#CC[C@H](NC(=O)C(CC(=O)N(C)CCN(C)C)Cc1ccccc1)C(=O)NC(CC1CCCCC1)[C@@H](O)C(O)CC(C)C (relative stereo) [Example 1, N1-[1R*-[[[1S,1R*-(cyclohexylmethyl)-2S*,3R*-dihydroxy-5-methylhexyl]amino]carbonyl]-3-butynyl]-N4-[2-(dimethylamino)ethyl]-N4-methyl-2S*-(phenylmethyl)butanediamide]
Plasma Concentrations (marmoset, IG at 10 mg/kg, Test Run A, 1 hr, individual animals, 10 mg/kg): 1989 ng/mL and 1751 ng/mL | Plasma Concentrations (marmoset, IG at 10 mg/kg, Test Run A, 2 hr, individual animals, 10 mg/kg): 1525 ng/mL and 1811 ng/mL | Plasma Concentrations (marmoset, IG at 10 mg/kg, Test Run A, 3 hr, individual animals, 10 mg/kg): 5289 ng/mL and 6935 ng/mL | Plasma Concentrations (marmoset, IG at 10 mg/kg, Test Run A, 4 hr, individual animals, 10 mg/kg): 742 ng/mL and 1766 ng/mL and 1217 ng/mL | Plasma Concentrations (marmoset, IG at 10 mg/kg, Test Run A, 5 hr, individual animals, 10 mg/kg): 369 ng/mL and 1397 ng/mL and 945 ng/mL | Plasma Concentrations (marmoset, IG at 10 mg/kg, Test Run A, 6 hr, individual animals, 10 mg/kg): 3177 ng/mL and 4412 ng/mL | Plasma Concentrations (marmoset, IG at 10 mg/kg, Test Run A, 8 hr, individual animals, 10 mg/kg): 3036 ng/mL and 3800 ng/mL | Plasma Concentrations (marmoset, IG at 10 mg/kg, Test Run B, 30 min, individual animals, 10 mg/kg): 1016 ng/mL and 1126 ng/mL | Plasma Concentrations (marmoset, IG at 10 mg/kg, Test Run B, 1 hr, individual animals, 10 mg/kg): 416 ng/mL and 5266 ng/mL and 12300 ng/mL | Plasma Concentrations (marmoset, IG at 10 mg/kg, Test Run B, 2 hr, individual animals, 10 mg/kg): 519 ng/mL and 4847 ng/mL and 13485 ng/mL | Plasma Concentrations (marmoset, IG at 10 mg/kg, Test Run B, 3 hr, individual animals, 10 mg/kg): 2751 ng/mL and 3640 ng/mL and 1400 ng/mL | Plasma Concentrations (marmoset, IG at 10 mg/kg, Test Run B, 4 hr, individual animals, 10 mg/kg): 459 ng/mL and 4502 ng/mL and 11470 ng/mL | Plasma Concentrations (marmoset, IG at 10 mg/kg, Test Run B, 5 hr, individual animals, 10 mg/kg): 545 ng/mL and 3718 ng/mL and 7783 ng/mL | Plasma Concentrations (marmoset, IG at 10 mg/kg, Test Run B, 6 hr, individual animals, 10 mg/kg): 2721 ng/mL and 1950 ng/mL | Plasma Concentrations (marmoset, IG at 10 mg/kg, Test Run B, 8 hr, individual animals, 10 mg/kg): 1566 ng/mL and 1868 ng/mL | Plasma Concentrations (marmoset, IV at 1 mg/kg, Test Run C, 2 min, individual animals, 1 mg/kg): 21579 ng/mL and 16641 ng/mL | Plasma Concentrations (marmoset, IV at 1 mg/kg, Test Run C, 15 min, individual animals, 1 mg/kg): 6756 ng/mL and 15283 ng/mL and 11628 ng/mL | Plasma Concentrations (marmoset, IV at 1 mg/kg, Test Run C, 30 min, individual animals, 1 mg/kg): 10359 ng/mL and 7921 ng/mL | Plasma Concentrations (marmoset, IV at 1 mg/kg, Test Run C, 1 hr, individual animals, 1 mg/kg): 2665 ng/mL and 2793 ng/mL | Plasma Concentrations (marmoset, IV at 1 mg/kg, Test Run C, 2 hr, individual animals, 1 mg/kg): 795 ng/mL and 2362 ng/mL and 1667 ng/mL | Plasma Concentrations (marmoset, IV at 1 mg/kg, Test Run C, 3 hr, individual animals, 1 mg/kg): 404 ng/mL and 562 ng/mL | Plasma Concentrations (marmoset, IV at 1 mg/kg, Test Run C, 4 hr, individual animals, 1 mg/kg): 608 ng/mL and 1223 ng/mL and 1068 ng/mL | Plasma Concentrations (marmoset, IV at 1 mg/kg, Test Run C, 6 hr, individual animals, 1 mg/kg): 208 ng/mL and 245 ng/mL | Plasma Concentrations (marmoset, IV at 1 mg/kg, Test Run D, 2 min, individual animals, 1 mg/kg): 7875 ng/mL and 5900 ng/mL | Plasma Concentrations (marmoset, IV at 1 mg/kg, Test Run D, 15 min, individual animals, 1 mg/kg): 7239 ng/mL and 2016 ng/mL and 897 ng/mL | Plasma Concentrations (marmoset, IV at 1 mg/kg, Test Run D, 30 min, individual animals, 1 mg/kg): 2356 ng/mL and 1189 ng/mL | Plasma Concentrations (marmoset, IV at 1 mg/kg, Test Run D, 1 hr, individual animals, 1 mg/kg): 1250 ng/mL and 1614 ng/mL and 3149 ng/mL | Plasma Concentrations (marmoset, IV at 1 mg/kg, Test Run D, 2 hr, individual animals, 1 mg/kg): 1004 ng/mL and 1055 ng/mL | Plasma Concentrations (marmoset, IV at 1 mg/kg, Test Run D, 3 hr, individual animals, 1 mg/kg): 451 ng/mL and 557 ng/mL and 1009 ng/mL | Plasma Concentrations (marmoset, IV at 1 mg/kg, Test Run D, 4 hr, individual animals, 1 mg/kg): 153 ng/mL and 587 ng/mL and 506 ng/mL | Plasma Concentrations (marmoset, IV at 1 mg/kg, Test Run D, 6 hr, individual animals, 1 mg/kg): 84 ng/mL and 158 ng/mL | concentration at 2 min (marmoset, plasma, iv, 1 mg/kg, marmoset, IV at 1 mg/kg, 2 min, Test Run D table, read-out: Plasma Concentrations, Mean ± SE): 11600 ± 2770 ng/mL | concentration at 15 min (marmoset, plasma, iv, 1 mg/kg, marmoset, IV at 1 mg/kg, 15 min, Test Run D table, read-out: Plasma Concentrations, Mean ± SE): 7300 ± 2250 ng/mL | concentration at 30 min (marmoset, plasma, iv, 1 mg/kg, marmoset, IV at 1 mg/kg, 30 min, Test Run D table, read-out: Plasma Concentrations, Mean ± SE): 4940 ± 1510 ng/mL | concentration at 1 h (marmoset, plasma, iv, 1 mg/kg, marmoset, IV at 1 mg/kg, 1 hr, Test Run D table, read-out: Plasma Concentrations, Mean ± SE): 2430 ± 326 ng/mL | concentration at 2 h (marmoset, plasma, iv, 1 mg/kg, marmoset, IV at 1 mg/kg, 2 hr, Test Run D table, read-out: Plasma Concentrations, Mean ± SE): 1240 ± 271 ng/mL | concentration at 3 h (marmoset, plasma, iv, 1 mg/kg, marmoset, IV at 1 mg/kg, 3 hr, Test Run D table, read-out: Plasma Concentrations, Mean ± SE): 578 ± 90 ng/mL | concentration at 4 h (marmoset, plasma, iv, 1 mg/kg, marmoset, IV at 1 mg/kg, 4 hr, Test Run D table, read-out: Plasma Concentrations, Mean ± SE): 691 ± 160 ng/mL | concentration at 6 h (marmoset, plasma, iv, 1 mg/kg, marmoset, IV at 1 mg/kg, 6 hr, Test Run D table, read-out: Plasma Concentrations, Mean ± SE): 176 ± 31 ng/mL | concentration at 2 min (marmoset, plasma, iv, 1 mg/kg, marmoset, IV at 1 mg/kg, Test Run C, 2 min, individual animals, read-out: Plasma Concentrations): 13700 ng/mL | concentration at 30 min (marmoset, plasma, iv, 1 mg/kg, marmoset, IV at 1 mg/kg, Test Run C, 30 min, individual animals, read-out: Plasma Concentrations): 5860 ng/mL | concentration at 1 h (marmoset, plasma, iv, 1 mg/kg, marmoset, IV at 1 mg/kg, Test Run C, 1 hr, individual animals, read-out: Plasma Concentrations): 3090 ng/mL | concentration at 3 h (marmoset, plasma, iv, 1 mg/kg, marmoset, IV at 1 mg/kg, Test Run C, 3 hr, individual animals, read-out: Plasma Concentrations): 486 ng/mL | concentration at 6 h (marmoset, plasma, iv, 1 mg/kg, marmoset, IV at 1 mg/kg, Test Run C, 6 hr, individual animals, read-out: Plasma Concentrations): 264 ng/mL | concentration at 2 min (marmoset, plasma, iv, 1 mg/kg, marmoset, IV at 1 mg/kg, Test Run D, 2 min, individual animals, read-out: Plasma Concentrations): 4200 ng/mL | concentration at 30 min (marmoset, plasma, iv, 1 mg/kg, marmoset, IV at 1 mg/kg, Test Run D, 30 min, individual animals, read-out: Plasma Concentrations): 1950 ng/mL | concentration at 2 h (marmoset, plasma, iv, 1 mg/kg, marmoset, IV at 1 mg/kg, Test Run D, 2 hr, individual animals, read-out: Plasma Concentrations): 554 ng/mL | concentration at 6 h (marmoset, plasma, iv, 1 mg/kg, marmoset, IV at 1 mg/kg, Test Run D, 6 hr, individual animals, read-out: Plasma Concentrations): 95 ng/mL | concentration at 30 min (marmoset, plasma, oral, 10 mg/kg, marmoset, IG at 10 mg/kg, 30 min, Test Run B, read-out: Plasma Concentrations, Mean ± SE): 4990 ± 1750 ng/mL | concentration at 1 h (marmoset, plasma, oral, 10 mg/kg, marmoset, IG at 10 mg/kg, 1 hr, Test Run B, read-out: Plasma Concentrations, Mean ± SE): 3840 ± 1820 ng/mL | concentration at 2 h (marmoset, plasma, oral, 10 mg/kg, marmoset, IG at 10 mg/kg, 2 hr, Test Run B, read-out: Plasma Concentrations, Mean ± SE): 3960 ± 2000 ng/mL | concentration at 3 h (marmoset, plasma, oral, 10 mg/kg, marmoset, IG at 10 mg/kg, 3 hr, Test Run B, read-out: Plasma Concentrations, Mean ± SE): 4510 ± 939 ng/mL | concentration at 4 h (marmoset, plasma, oral, 10 mg/kg, marmoset, IG at 10 mg/kg, 4 hr, Test Run B, read-out: Plasma Concentrations, Mean ± SE): 3360 ± 1730 ng/mL | concentration at 5 h (marmoset, plasma, oral, 10 mg/kg, marmoset, IG at 10 mg/kg, 5 hr, Test Run B, read-out: Plasma Concentrations, Mean ± SE): 2460 ± 1170 ng/mL | concentration at 6 h (marmoset, plasma, oral, 10 mg/kg, marmoset, IG at 10 mg/kg, 6 hr, Test Run B, read-out: Plasma Concentrations, Mean ± SE): 3430 ± 457 ng/mL | concentration at 8 h (marmoset, plasma, oral, 10 mg/kg, marmoset, IG at 10 mg/kg, 8 hr, Test Run B, read-out: Plasma Concentrations, Mean ± SE): 2610 ± 400 ng/mL | concentration at 30 min (marmoset, plasma, oral, 10 mg/kg, marmoset, IG at 10 mg/kg, Test Run A, 30 min, individual animals, read-out: Plasma Concentrations): 9860 ng/mL | concentration at 1 h (marmoset, plasma, oral, 10 mg/kg, marmoset, IG at 10 mg/kg, Test Run A, 1 hr, individual animals, read-out: Plasma Concentrations): 1340 ng/mL | concentration at 2 h (marmoset, plasma, oral, 10 mg/kg, marmoset, IG at 10 mg/kg, Test Run A, 2 hr, individual animals, read-out: Plasma Concentrations): 1560 ng/mL | concentration at 3 h (marmoset, plasma, oral, 10 mg/kg, marmoset, IG at 10 mg/kg, Test Run A, 3 hr, individual animals, read-out: Plasma Concentrations): 7050 ng/mL | concentration at 6 h (marmoset, plasma, oral, 10 mg/kg, marmoset, IG at 10 mg/kg, Test Run A, 6 hr, individual animals, read-out: Plasma Concentrations): 4910 ng/mL | concentration at 8 h (marmoset, plasma, oral, 10 mg/kg, marmoset, IG at 10 mg/kg, Test Run A, 8 hr, individual animals, read-out: Plasma Concentrations): 3570 ng/mL | concentration at 30 min (marmoset, plasma, oral, 10 mg/kg, marmoset, IG at 10 mg/kg, Test Run B, 30 min, individual animals, read-out: Plasma Concentrations): 1340 ng/mL | concentration at 6 h (marmoset, plasma, oral, 10 mg/kg, marmoset, IG at 10 mg/kg, Test Run B, 6 hr, individual animals, read-out: Plasma Concentrations): 2860 ng/mL | concentration at 8 h (marmoset, plasma, oral, 10 mg/kg, marmoset, IG at 10 mg/kg, Test Run B, 8 hr, individual animals, read-out: Plasma Concentrations): 1800 ng/mL | bioavailability (marmoset, plasma, oral, marmosets, IG 10 mg/kg vs IV 1 mg/kg): 27% | half-life (monkey, plasma, marmosets, read-out: terminal half-life (converted)): 1.5 h | Vd (monkey, plasma, marmosets, read-out: volume of distribution): 0.2 L/kg
